pIC50: −log10 of the molar value. Where two headings read alike, the source gives them in different places.
Experiments:
HeLa cells [1] = assay: Identification of cell uptake by confocal microscopy; format: cell-based; conditions: 10 µM compound, serum-free DMEM, 37° C., 30 minutes
Protocol: (§1) High glucose Dulbecco's modified Eagle's medium (DMEM), Roswell Park Memorial Institute (RPMI) 1640, Dulbecco's phosphate buffered saline, pH 7.4 (DPBS), fetal bovine serum (FBS), and trypsin/EDTA were obtained from Gibco™ and Thermo Fischer Scientific. Mitotracker and Lysotracker were obtained from Invitrogen Inc. (USA). 3-(4,5-Dimethyl-2-thiazolyl)-2,5-diphenyl-2H-tetrazolium bromide (MTT) was purchased from Sigma-Aldrich Korea Ltd. All solutions were prepared using Milli-Q purified water […]. HeLa cells were cultured in 10% (v/v) FBS containing DMEM and penicillin at 37° C. under a wet 5% CO2 environment. For SW480 cells and HT-29 cells, RMPI 1640 medium was used.
(§2) HeLa cells (1×10^5 cells per well) were seeded in a 35 mm cover glass bottom dish (SPL Life Sciences Co., Ltd., Korea) and incubated for 24 hours. […] After incubation at 37° C. for 30 minutes, the cells were washed three times with cold PBS to remove non-internalized samples. Live HeLa cells were examined with a confocal laser scanning microscope (Olympus Fluoview FV1000) equipped with an oil immersion lens (NA 1.30, 40×). […] Each analysis was repeated three times.

HeLa cells [2] = tested on: HeLa cells
Protocol: as §2

SW480 cells = assay: Measurement of cytotoxicity, MTT assay; format: cell-based; conditions: Homo sapiens, 48 hours incubation, read-out: IC50 (cell viability, MTT)
Protocol: as §1
(§3) SW480 cells and HT-29 cells (4.5×10^3 cells per well) were seeded in a 96-well plate. After 24 hours, the medium was replaced with serum-free RMPT 1640. […] The treated cells were incubated for 48 hours, washed with cold PBS, and then exposed to MTT in the medium for 4 hours. The medium was replaced with DMSO, and the dissolved formazan dye was quantified by measuring the absorbance at 500 nm. Non-treated cells were measured in the same manner as a control.

HT-29 cells = assay: Measurement of cytotoxicity, MTT assay; format: cell-based; conditions: Homo sapiens, 48 hours incubation, read-out: IC50 (cell viability, MTT)
Protocol: as §1, §3

Compound | Cell uptake (intracellular FITC fluorescence in live cells) (HeLa cells [1]) | Intracellular localization (HeLa cells [2]; HeLa cells, 10 μM) | Intracellular localization (HeLa cells [2]; HeLa cells, 20 μM, incubated 30 minutes) | Co-localization with Lysotracker (lysosomal marker) (HeLa cells [2]; HeLa cells, Lysotracker 200 nM) | Co-localization with Mitotracker (mitochondrial marker) (HeLa cells [2]; live HeLa cells, 10 uM for 30 minutes, then Mitotracker 100 nM for 30 minutes) | pIC50 (SW480 cells) | pIC50 (HT-29 cells)
20-O-[6-(fluoresceinyl-5-thioureido)-hexanoyl)camptothecin [compound (4)] | intracellular fluorescence was not observed |  |  |  |  |  | 
1-O-[20-O—(N-succinyl-6-aminohexanoyl)camptothecin]-2,3,4,5-tetra-O—(N-{bis-[3-N′,N″-bis-(tert-butoxycarbonyl)-guanidino)-propyl]}-6-aminohexanoyl)-6-O-[6-(fluoresceinyl-5-thioureido)-hexanoyl]-D-sorbitol⋅8HCl [compound (10)] | strong green fluorescence appears mainly in the cytoplasm | intracellular localization for mitochondria | fluorescence exists even inside the nucleus | co-localization was not observed | Co-localization was markedly observed |  | 
CC[C@@]1(O)C(=O)OCc2c1cc1n(c2=O)Cc2cc3ccccc3nc2-1 [CPT, Camptothecin] |  |  |  |  |  | 5.82 | 6.00
